{"source": "ChEMBL document CHEMBL5226304", "about": "“Fused-azepinones: Emerging scaffolds of medicinal importance” (Eur J Med Chem, 2021)", "key": {"HepG2": {"test_system": "HepG2", "experiment": "Cytotoxicity against human HepG2 cells by MTT assay", "assay_type": "functional, cell-based"}, "MOLT-3": {"test_system": "MOLT-3", "experiment": "Cytotoxicity against human MOLT-3 cells by MTT assay", "assay_type": "functional, cell-based"}, "Tubulin": {"target": "Tubulin", "experiment": "Inhibition of tubulin polymerization (unknown origin)", "assay_type": "protein-complex assay, Homo sapiens"}, "[1]": {"target": "Cyclin-dependent kinase 1/cyclin B (Homo sapiens, UniProt P06493)", "experiment": "Inhibition of CDK1/Cyclin B (unknown origin) in presence of gamma32P-ATP by scintillation counter analysis", "assay_type": "protein-complex assay"}, "[2]": {"target": "Dual specificity mitogen-activated protein kinase kinase 1 (Homo sapiens, UniProt Q02750)", "sequence (Q02750 whole entry)": "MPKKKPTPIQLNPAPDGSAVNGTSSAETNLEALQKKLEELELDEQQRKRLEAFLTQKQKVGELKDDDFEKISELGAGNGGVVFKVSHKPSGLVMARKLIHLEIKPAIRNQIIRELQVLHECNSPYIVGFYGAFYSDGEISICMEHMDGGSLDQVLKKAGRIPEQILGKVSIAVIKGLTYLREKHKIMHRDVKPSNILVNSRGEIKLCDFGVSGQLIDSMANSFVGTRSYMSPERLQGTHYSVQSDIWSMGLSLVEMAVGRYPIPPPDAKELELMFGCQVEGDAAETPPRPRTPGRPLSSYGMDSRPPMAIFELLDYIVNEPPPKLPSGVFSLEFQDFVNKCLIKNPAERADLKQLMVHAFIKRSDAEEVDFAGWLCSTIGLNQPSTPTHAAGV", "experiment": "Inhibition of MEK1 (unknown origin)"}, "Protein kinase C (PKC)": {"target": "Protein kinase C (PKC)", "experiment": "Inhibition of Protein kinase C (unknown origin)", "assay_type": "protein assay, Homo sapiens"}, "[3]": {"target": "Cyclin-dependent kinase 5/CDK5 activator 1 (Homo sapiens, UniProt Q00535)", "sequence (Q00535 whole entry)": "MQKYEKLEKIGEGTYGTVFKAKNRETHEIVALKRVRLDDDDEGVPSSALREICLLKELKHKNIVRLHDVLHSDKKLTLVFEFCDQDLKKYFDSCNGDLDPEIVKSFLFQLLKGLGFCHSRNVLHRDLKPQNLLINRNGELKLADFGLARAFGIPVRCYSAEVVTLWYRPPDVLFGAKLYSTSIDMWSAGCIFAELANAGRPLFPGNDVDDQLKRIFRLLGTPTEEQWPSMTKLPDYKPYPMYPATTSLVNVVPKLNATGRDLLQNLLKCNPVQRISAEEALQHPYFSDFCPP", "sequence (Q15078 whole entry, further chain)": "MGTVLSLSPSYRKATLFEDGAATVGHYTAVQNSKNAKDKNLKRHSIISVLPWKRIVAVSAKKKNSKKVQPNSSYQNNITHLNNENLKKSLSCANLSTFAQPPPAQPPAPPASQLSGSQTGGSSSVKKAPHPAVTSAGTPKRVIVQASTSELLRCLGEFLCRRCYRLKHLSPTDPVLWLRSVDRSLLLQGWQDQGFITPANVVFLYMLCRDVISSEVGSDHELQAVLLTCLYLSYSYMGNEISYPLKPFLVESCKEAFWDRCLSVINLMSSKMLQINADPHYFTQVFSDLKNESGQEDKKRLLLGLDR", "experiment": "Inhibition of CDK5/p25 (unknown origin)", "assay_type": "protein-complex assay"}, "L5178Y": {"test_system": "L5178Y", "experiment": "Cytotoxicity against mouse L5178Y cells by MTT assay", "assay_type": "functional, cell-based"}, "Rattus norvegicus [4]": {"test_system": "Rattus norvegicus", "experiment": "Antiarthritic activity in adjuvant-induced arthritis rat model assessed as reduction in paw swelling at 20 mg/kg, ip administered for day 6 to 10 post adjuvant measured on day 16 to 20 relative to control", "assay_type": "functional"}, "Rattus norvegicus [5]": {"test_system": "Rattus norvegicus", "experiment": "Antiarthritic activity in adjuvant-induced arthritis rat model assessed as reduction in paw swelling at 10 mg/kg, ip administered for day 6 to 10 post adjuvant measured on day 16 to 20 relative to control", "assay_type": "functional"}, "Homo sapiens": {"species_on_record": "Homo sapiens", "experiment": "Selectivity ratio of IC50 for Chk1 (unknown origin) to IC50 for (unknown origin)"}, "Mus musculus": {"species_on_record": "Mus musculus", "experiment": "Neuroprotective activity in Swiss mouse cortical neurons assessed as increase in cell viability in presence of H2O2 at 1 nM relative to control", "assay_type": "functional"}, "Rattus norvegicus [6]": {"test_system": "Rattus norvegicus", "experiment": "Hypotensive effect in rat vascular smooth muscles assessed as reduction in arterial blood pressure at 5 mg/kg measured after 15 mins", "assay_type": "functional", "settings": "Smooth muscle tissue, 0.25 h"}, "A549": {"test_system": "A549", "experiment": "Cytotoxicity against human A549 cells by MTT assay", "assay_type": "functional, cell-based"}, "P388": {"test_system": "P388", "experiment": "Cytotoxicity against mouse P388 cells", "assay_type": "functional", "settings": "read-out: ED50 (the source's name)"}, "MCF7": {"test_system": "MCF7", "experiment": "Growth inhibition of human MCF7 cells at 1 uM by MTT assay relative to control", "assay_type": "functional", "settings": "read-out: GI"}}}
{"compound": "O=C1NCCc2ccccc2-c2c1[nH]c1ccccc21", "values": [{"measurement": "IC50", "setting": "HepG2", "value": 460, "unit": "nM"}, {"measurement": "IC50", "setting": "MOLT-3", "value": 9, "unit": "nM"}, {"measurement": "IC50", "setting": "Tubulin", "value": 7.7, "unit": "µM"}]}
{"compound": "NC1=N/C(=C2/CCNC(=O)c3[nH]ccc32)C(=O)N1", "note": "[DEBROMOHYMENIALDISINE]", "values": [{"measurement": "IC50", "setting": "[1]", "value": 250, "unit": "nM"}, {"measurement": "IC50", "setting": "[2]", "value": 820, "unit": "nM"}, {"measurement": "IC50", "setting": "Protein kinase C (PKC)", "value": "< 10", "unit": "µM"}, {"measurement": "IC50", "setting": "[3]", "value": 112, "unit": "nM"}, {"measurement": "EC50", "setting": "L5178Y", "value": 1.8, "unit": "µg/mL"}, {"measurement": "inhibition in vivo at 20 mg/kg", "setting": "Rattus norvegicus [4]", "value": "> 60", "unit": "%"}, {"measurement": "inhibition in vivo at 10 mg/kg", "setting": "Rattus norvegicus [5]", "value": 63, "unit": "%"}, {"measurement": "Ratio IC50", "setting": "Homo sapiens", "value": 4}]}
{"compound": "Nc1nc(C2CCNC(=O)c3[nH]c(Br)c(Br)c32)c[nH]1", "note": "(stereo unspecified)", "values": [{"measurement": "Activity", "setting": "Mus musculus", "value": 120, "unit": "%"}, {"measurement": "inhibition in vivo at 5 mg/kg", "setting": "Rattus norvegicus [6]", "value": 90, "unit": "%"}]}
{"compound": "Cc1ccc2[nH]c3c(c2c1)CNC(=O)c1[nH]c2ccccc2c1-3", "values": [{"measurement": "IC50", "setting": "A549", "value": 4.2, "unit": "µM"}]}
{"compound": "O=C1NC(=O)/C(=C2/CCNC(=O)c3[nH]c(Br)cc32)N1", "values": [{"measurement": "EC50", "setting": "P388", "value": 18, "unit": "µg/mL"}]}
{"compound": "O=C1NCc2ccccc2-c2c1sc1ccccc21", "values": [{"measurement": "inhibition of growth at 1 µM", "setting": "MCF7", "value": 17, "unit": "%"}]}
